Results reported in US4868162A, “Antiviral agent” (Teijin Limited, priority 1985, dated 1989).
≈ marks a conversion by molar mass, not a printed value.

Tests used:
[1] = system: herpes simplex type I virus (KOS strain); experiment: Plaque reduction in herpes simplex type I infected Vero cells (Example 2, 10,000 pfu/ml); assay type: cell-based; conditions: HSV-1 KOS 10,000 pfu/ml; for EC50: Human alphaherpesvirus 1, 48-hour culture, read-out: ED50 (effective dose which suppressed the formation of plaques by 50% in number); for EC50 / Therapeutic index MTD/ED50: Vero cells; for Therapeutic index MTD/ED50: 2880 min
Method: Vero cells were cultured in Eagle minimum
1 medium (MEM) containing 5% calf serum (CS) and were made to proliferate after the monolayer cell culture method. The cultured cells were inoculated with 0.1 ml of herpes simplex type I virus (KOS strain) of 10,000 pfu/ml concentration, which were left to be adsorbed by the host cells at 37° C. for 1 hour. The test compounds, inclusive of the compounds of this invention, were added to the cultures respectively in concentration of 0.001~1,000 μg/ml.
(§1) After 48-hour culture in 2% CS-MEM medium was over, the effective dose of each test compound which suppressed the formation of plaques by 50% in number (EDs) and the minimum toxic dose (MTD) which caused the cytotoxicity were measured.

in vitro [2] = assay type: cell-based, African green monkey; conditions: monkey, vero cells
Method: as §1, with “Vero cells were cultured in Eagle minimum 1 medium (MEM) containing 5% calf serum (CS) and were made to proliferate after the monolayer cell culture method. […] After” for “After”

[3] = system: herpes simplex type I virus (KOS strain); experiment: Plaque reduction in herpes simplex type I infected Vero cells (Example 3, 2,000 pfu/ml); assay type: cell-based; conditions: for Therapeutic index MTD/ED50: HSV-1 KOS 2,000 pfu/ml, 2880 min; for EC50: Human alphaherpesvirus 1, HSV-1 KOS 2,000 pfu/ml, 48-hour culture, read-out: ED50 (effective dose which suppressed the formation of plaques by 50% in number)
Method: (§2) Vero cells. were cultured in Eagle essential medium (MEM) containing 5% fetal calf serum (FCS) and were made to proliferate after the monolayer cell culture method. The cells were inoculated with 0.1 ml of herpes simplex type I virus (KOS strain) of 2,000 pfu/ml concentration, which were made to be adsorbed by the host cells at 37° C. for 1 hour. The virus that were not yet adsorbed were washed away with a 2% CS-MEM medium and then test compounds, inclusive of the compounds of this invention, were added to the cultures respectively in concentration of 0.01~1,000 μg/ml.
(§3) After 48-hour culture in 2% CS-MEM medium was over, the effective dose of each test compound which suppressed the formation of plaques by 50% in number (ED50) and the minimum toxic dose (MTD) which caused the cytotoxicity were measured.

in vitro [4] = assay type: cell-based, African green monkey; conditions: monkey, vero cells; remark: listed apart in the source
Method: as §2, §3

[5] = system: herpes simplex type I virus (KOS strain); experiment: Plaque reduction in herpes simplex type I infected Vero cells (Example 1, 1,000 pfu/ml); assay type: cell-based; conditions: for Therapeutic index MTD/ED50: HSV-1 KOS 1,000 pfu/ml, 2880 min; for EC50: Human alphaherpesvirus 1, HSV-1 KOS 1,000 pfu/ml, 48-hour culture, read-out: ED50 (effective dose which suppressed the formation of plaques by 50% in number)
Method: (§4) Vero cells were cultured in Eagle minimum essential medium (MEM) containing 5% calf serum (CS) and were made to proliferate by means of monolayer cell culture. The cells were inoculated with 0.1 ml of herpes simplex type I virus (KOS strain) adjusted to 1,000 pfu/ml, which were allowed to hold on the host cells by adsorption for 1 hour at 37° C. Thereafter, the test compound, inclusive of the compounds of this invention, were added thereto respectively in concentration of 0.01~1,000 μg/ml.
(§5) After 48-hour culture in CS-MEM medium was over, the effective dose of each test compound which suppressed the formation of plaques by 50% in number (ED50) and the minimum toxic dose (MTD) which caused the cytotoxicity were measured.

[6] = Cytotoxicity, minimum toxic dose in Vero cells (Example 1); assay type: cell-based, African green monkey; conditions: monkey
Method: as §4, §5

EC50 [1] [µg/mL] | MCC at 48 h (in vitro [2]) [µg/mL] | EC50 [3] [µg/mL] | MCC at 48 h (in vitro [4]) [µg/mL] | EC50 [5] [µg/mL] | Compound | Therapeutic index MTD/ED50 [1] | Therapeutic index MTD/ED50 [3] | Therapeutic index MTD/ED50 [5] | MCC at 48 h ([6]; vero cells) [µg/mL] | further results
0.038 (≈ 0.0685 µM) | 100 | – | – | – | CCCCCCCCCC(=O)OC[C@H]1O[C@@H](n2cc(F)c(=O)[nH]c2=O)C[C@@H]1OC(=O)CCCCCCCCC [3',5'-didecanoyl-5-fluoro-2'deoxyuridine, 3',5'-didecanoyl-5-fluoro-2'-deoxyuridine] | 2,600 | – | – | – | –
– | – | 0.112 (≈ 0.246 µM) | 100 | – | O=C(OC[C@H]1O[C@@H](n2cc(F)c(=O)[nH]c2=O)C[C@@H]1OC(=O)c1ccccc1)c1ccccc1 [3',5'-dibenzoyl-5-fluoro-2'-deoxyuridine] | – | 893 | – | – | –
– | – | – | – | 0.054 (≈ 0.0884 µM) | CCCCCCCCCCCC(=O)OC[C@H]1O[C@@H](n2cc(F)c(=O)[nH]c2=O)C[C@@H]1OC(=O)CCCCCCCCCCC [3',5'-didodecanoyl-5-fluoro-2'-deoxyuridine] | – | – | 1,900 | 100 | –
0.018 (≈ 0.0361 µM) | 100 | – | – | – | CCCCCCCC(=O)OC[C@H]1O[C@@H](n2cc(F)c(=O)[nH]c2=O)C[C@@H]1OC(=O)CCCCCCC [3',5'-dioctanoyl-5-fluoro-2'-deoxyuridine] | 5,600 | – | – | – | effective dose relative to that of Acyclovir for the same effect ([1]; fraction of Acyclovir effective dose): about 1/400
7.26 (≈ 32.2 µM) | 1000 | 3.36 (≈ 14.9 µM) | 1000 | 0.991 (≈ 4.4 µM) | Nc1nc2c(ncn2COCCO)c(=O)[nH]1 [9-(2-hydroxyethoxymethyl)guanine, reference compound] | 140 | 279 | 1,000 | 1000 | –
– | – | – | – | 0.077 (≈ 0.106 µM) | CCCCCCCCCCCCCCCC(=O)OC[C@H]1O[C@@H](n2cc(F)c(=O)[nH]c2=O)C[C@@H]1OC(=O)CCCCCCCCCCCCCCC [3',5'-dihexadecanoyl-5-fluoro-2'-deoxyuridine] | – | – | 2,000 | 150 | –
– | – | – | – | 0.049 (≈ 0.0735 µM) | CCCCCCCCCCCCCC(=O)OC[C@H]1O[C@@H](n2cc(F)c(=O)[nH]c2=O)C[C@@H]1OC(=O)CCCCCCCCCCCCC [3',5'-ditetradecanoyl-5-fluoro-2'-deoxyuridine] | – | – | 2,000 | 100 | –
– | – | 0.285 (≈ 0.47 µM) | 10 | – | CCCCCCCC(=O)OC[C@H]1O[C@@H](n2cc(I)c(=O)[nH]c2=O)C[C@@H]1OC(=O)CCCCCCC [3',5'-dioctanoyl-5-iodo-2'-deoxyuridine] | – | 35 | – | – | –

Compound | EC50 [1] [µg/mL] | MCC at 48 h (in vitro [2]) [µg/mL] | EC50 [3] [µg/mL] | MCC at 48 h (in vitro [4]) [µg/mL] | EC50 [5] [µg/mL] | Therapeutic index MTD/ED50 [1] | Therapeutic index MTD/ED50 [3] | Therapeutic index MTD/ED50 [5] | MCC at 48 h ([6]; vero cells) [µg/mL] | further results
O=c1[nH]c(=O)n([C@H]2C[C@H](O)[C@@H](CO)O2)cc1F [5-fluoro-2'-deoxyuridine, reference compound] | – | – | – | – | 0.01 (≈ 0.0406 µM) | – | – | 10 | – | MCC at 48 h ([6]; Vero cells, Example 1, 48-hour culture, read-out: MTD (minimum toxic dose which caused the cytotoxicity)): 0.1 µg/mL
